Source: US9073895B2 (Boehringer Ingelheim International GmbH, priority 2010, dated 2015)

Columns and labels:
[1] = target: T1, recombinant human FLAP protein (Homo sapiens, UniProt P20292); assay: FLAP binding assay (SPA, displacement of [125I]L-691,831); settings: membranes of sf9 cells expressing human FLAP, [125I]L-691,831 probe; read-out: hFLAP binding IC50
T1 construct: made in house; host or cells: Sf9 insect cells (membrane fraction, 100,000 x g pellet)
T1 sequence (P20292 1-161): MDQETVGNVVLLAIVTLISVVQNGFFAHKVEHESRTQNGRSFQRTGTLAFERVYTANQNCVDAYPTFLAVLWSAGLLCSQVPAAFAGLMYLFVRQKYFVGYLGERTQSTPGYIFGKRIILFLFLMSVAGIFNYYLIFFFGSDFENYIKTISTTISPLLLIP
How it was run: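 Membranes from sf9 cells expressing human FLAP (5 μg/well) were bound to WGA SPA beads (200 μg/well). Nonspecific binding was defined with 10 μM unlabelled L-691,831.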

[2] = system: synthesis of LTB4 in human whole blood; assay: Human whole blood LTB4 production inhibition assay; type: cell-based; settings: heparinized human whole blood, calcimycin 20 μM, plasma LTB4; read-out: HuWB IC50
How it was run: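 Readout: plasma LTB4 by antibody-based HTRF. Compound added to heparinized human whole blood, 15 min 37° C; calcimycin 20 μM final (PBS pH 7.4), 30 min 37° C; spun 1500×g 5 min, plasma taken.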

SMILES | IC50 [1] | IC50 [2]
Cc1nc(-c2ccc(NC(=O)C3(c4ccc(-c5cnc(N)nc5)cc4)CCC3)nc2)cs1 [Example 131, 1-[4-(2-aminopyrimidin-5-yl)phenyl]-N-[5-(2-methyl-1,3-thiazol-4-yl)pyridin-2-yl]cyclobutanecarboxamide] | 0.0022 µM | 0.414 µM
COc1ccc(Oc2ccccc2)cc1NC(=O)C1(c2ccc(-c3cnc(N)nc3)cc2)CCOCC1 [Example 76, 4-[4-(2-aminopyrimidin-5-yl)phenyl]-N-(2-methoxy-5-phenoxyphenyl)tetrahydro-2H-pyran-4-carboxamide] | 0.0525 µM | > 3 µM
COc1cncc(-c2ccc(C(C)(C(=O)Nc3ccc(-c4csc(C)n4)cc3)C(C)C)cc2)c1 (stereo not shown) [Example 112, 2-[4-(5-methoxypyridin-3-yl)phenyl]-2,3-dimethyl-N-[4-(2-methyl-1,3-thiazol-4-yl)phenyl]butanamide] | 0.23 µM | 2.06 µM
O=C(Nc1ccc(Oc2ccccc2)cn1)C1(c2ccc(-c3cnc4[nH]ccc4c3)cc2)CCOCC1 [Example 174, N-(5-phenoxypyridin-2-yl)-4-[4-(1H-pyrrolo[2,3-b]pyridin-5-yl)phenyl]tetrahydro-2H-pyran-4-carboxamide] | 0.0181 µM | 0.686 µM
Nc1ncc(-c2ccc(C3(C(=O)Nc4ccc(-c5cccnc5)cn4)CCC3)cc2)cn1 [Example 239, 1-[4-(2-aminopyrimidin-5-yl)phenyl]-N-(3,3'-bipyridin-6-yl)cyclobutanecarboxamide] | 0.00215 µM | 0.144 µM
Nc1ncc(-c2ccc(C3(C(=O)Nc4ccnnc4)CCC3)cc2)cn1 [Example 215, 1-[4-(2-aminopyrimidin-5-yl)phenyl]-N-(pyridazin-4-yl)cyclobutanecarboxamide] | 0.0177 µM | 0.706 µM
CS(=O)(=O)c1ccc(NC(=O)C2(c3ccc(-c4cnc(N)nc4)cc3)CCC2)cc1 [Example 233, 1-[4-(2-aminopyrimidin-5-yl)phenyl]-N-[4-(methylsulfonyl)phenyl]cyclobutane-carboxamide] | 0.0065 µM | 0.16 µM
Cc1csc(NC(=O)C2(c3ccc(-c4cnc(N)nc4)cc3)CCC2)n1 [Example 205, 1-[4-(2-aminopyrimidin-5-yl)phenyl]-N-(4-methyl-1,3-thiazol-2-yl)cyclobutanecarboxamide] | 0.0084 µM | 0.922 µM
Cn1cc(NC(=O)C2(c3ccc(-c4cnc(N)nc4)cc3)CCC2)cn1 [Example 110, 1-[4-(2-aminopyrimidin-5-yl)phenyl]-N-(1-methyl-1H-pyrazol-4-yl)cyclobutanecarboxamide] | 0.12 µM | 1.1 µM
Nc1ncc(-c2ccc(C3(C(=O)Nc4cnc5ccccc5c4)CCOCC3)cc2)cn1 [Example 11, 4-[4-(2-aminopyrimidin-5-yl)phenyl]-N-(quinolin-3-yl)tetrahydro-2H-pyran-4-carboxamide] | 0.0219 µM | > 3 µM
CC(C)C(C)(C(=O)Nc1ccccn1)c1ccc(-c2cnc(N)nc2)cc1 (stereo not shown) [Example 127, 2-[4-(2-aminopyrimidin-5-yl)phenyl]-2,3-dimethyl-N-(pyridin-2-yl)butanamide] | 0.009 µM | 3.22 µM
Nc1ncc(-c2ccc(C3(C(=O)Nc4cc(Cl)cc(Cl)c4)CCOCC3)cc2)cn1 [Example 15, 4-[4-(2-aminopyrimidin-5-yl)phenyl]-N-(3,5-dichlorophenyl)tetrahydro-2H-pyran-4-carboxamide] | 0.0235 µM | > 3 µM
Nc1ncc(-c2ccc(C3(C(=O)Nc4cc5ccccc5cn4)CCOCC3)cc2)cn1 [Example 82, 4-[4-(2-aminopyrimidin-5-yl)phenyl]-N-(isoquinolin-3-yl)tetrahydro-2H-pyran-4-carboxamide] | 0.0105 µM | 2.78 µM
CCC(C)(C(=O)Nc1ccncc1)c1ccc(-c2cnc(N)nc2)cc1 (stereo not shown) [Example 231, 2-[4-(2-aminopyrimidin-5-yl)phenyl]-2-methyl-N-(pyridin-4-yl)butanamide] | 0.084 µM | 1.21 µM
